Test results from patent US7517884B2 (Kalypsys Inc., priority 1998, dated 2009).

Tests used:
Type in all cases: cell-based, murine and human
Details in all cases: GAL4-PPAR LBD chimera
[1] = molecular target: T1, PPAR-delta (UniProt Q03181); test: PPAR-delta transactivation assay (GAL4 chimera, luciferase reporter) in CV-1 cells
T1 sequence (Q03181 1-441): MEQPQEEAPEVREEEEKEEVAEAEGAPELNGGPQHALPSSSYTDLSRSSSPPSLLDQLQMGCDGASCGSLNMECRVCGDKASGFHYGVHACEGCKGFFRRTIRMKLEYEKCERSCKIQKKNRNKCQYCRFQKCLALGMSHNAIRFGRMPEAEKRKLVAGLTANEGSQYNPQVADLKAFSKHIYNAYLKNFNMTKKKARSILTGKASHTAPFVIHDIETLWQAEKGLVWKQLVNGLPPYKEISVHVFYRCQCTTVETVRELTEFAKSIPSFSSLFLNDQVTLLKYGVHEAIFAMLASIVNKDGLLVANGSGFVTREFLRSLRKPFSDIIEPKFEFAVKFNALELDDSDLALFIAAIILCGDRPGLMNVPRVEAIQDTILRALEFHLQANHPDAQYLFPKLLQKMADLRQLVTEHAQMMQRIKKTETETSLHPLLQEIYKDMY
Source text: (§1) Compounds may be screened for functional potency in transient transfection assays in CV-1 cells for their ability to activate the PPAR subtypes (transactivation assay). A previously established chimeric receptor system was utilized to allow comparison of the relative transcriptional activity of the receptor subtypes on the same synthetic response element and to prevent endogenous receptor activation from complicating the interpretation of results. See, for example, Lehmann, J. M.; Moore, L. B.; Smith-Oliver, T. A; Wilkinson, W. O.; Willson, T. M.; Kliewer, S. A., An antidiabetic thiazolidinedione is a high affinity ligand for peroxisome proliferator-activated receptor […], J. Biol. Chem., 1995, 270, 12953-6. The ligand binding domains for murine and human PPAR-alpha, PPAR-gamma, and PPAR-delta are each fused to the yeast transcription factor GAL4 DNA binding domain. CV-1 cells were transiently transfected with expression vectors for the respective PPAR chimera along with a reporter construct containing four or five copies of the GAL4 DNA binding site driving expression of luciferase. After 8-16 h, the cells are replated into multi-well assay plates and the media is exchanged to phenol-red free DME medium supplemented with 5% delipidated calf serum. 4 hours after replating, cells were treated with either compounds or 1% DMSO for 20-24 hours. Luciferase activity was then assayed with Britelite (Perkin Elmer) following the manufacturer's protocol and measured with either the Perkin Elmer Viewlux or Molecular Devices Acquest (see, for example, Kliewer, S. A., et. al. Cell 1995, 83, 813-819). Rosiglitazone is used as a positive control in the PPARγ assay. Wy-14643 and GW7647 are used as positive controls in the PPARα assay. GW501516 is used as the positive control in the PPARδ assay.
(§2) Compounds of Examples 1-141 were assayed to measure their biological activity with respect to their EC50 values for modulating PPAR-alpha, PPAR-gamma, and PPAR-delta as set forth in Table 1.

[2] = molecular target: T2, PPAR-gamma (UniProt P37231); test: PPAR-gamma transactivation assay (GAL4 chimera, luciferase reporter) in CV-1 cells
T2 sequence (P37231 1-505): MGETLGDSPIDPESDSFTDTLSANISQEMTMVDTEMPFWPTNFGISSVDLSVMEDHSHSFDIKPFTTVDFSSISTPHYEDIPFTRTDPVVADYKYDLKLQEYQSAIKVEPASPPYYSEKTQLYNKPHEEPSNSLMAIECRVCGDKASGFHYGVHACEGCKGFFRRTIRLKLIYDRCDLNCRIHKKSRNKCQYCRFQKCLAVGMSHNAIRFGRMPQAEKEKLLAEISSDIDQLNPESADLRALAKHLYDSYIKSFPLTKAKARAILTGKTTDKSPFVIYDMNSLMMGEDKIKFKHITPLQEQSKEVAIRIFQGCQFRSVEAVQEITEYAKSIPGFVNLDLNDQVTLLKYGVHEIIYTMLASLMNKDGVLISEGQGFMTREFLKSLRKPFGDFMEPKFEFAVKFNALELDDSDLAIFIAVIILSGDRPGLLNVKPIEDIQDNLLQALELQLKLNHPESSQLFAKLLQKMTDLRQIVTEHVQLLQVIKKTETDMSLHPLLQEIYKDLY
Source text: as §1, §2

[3] = molecular target: T3, PPAR-alpha (UniProt Q07869); test: PPAR-alpha transactivation assay (GAL4 chimera, luciferase reporter) in CV-1 cells
T3 sequence (Q07869 1-468): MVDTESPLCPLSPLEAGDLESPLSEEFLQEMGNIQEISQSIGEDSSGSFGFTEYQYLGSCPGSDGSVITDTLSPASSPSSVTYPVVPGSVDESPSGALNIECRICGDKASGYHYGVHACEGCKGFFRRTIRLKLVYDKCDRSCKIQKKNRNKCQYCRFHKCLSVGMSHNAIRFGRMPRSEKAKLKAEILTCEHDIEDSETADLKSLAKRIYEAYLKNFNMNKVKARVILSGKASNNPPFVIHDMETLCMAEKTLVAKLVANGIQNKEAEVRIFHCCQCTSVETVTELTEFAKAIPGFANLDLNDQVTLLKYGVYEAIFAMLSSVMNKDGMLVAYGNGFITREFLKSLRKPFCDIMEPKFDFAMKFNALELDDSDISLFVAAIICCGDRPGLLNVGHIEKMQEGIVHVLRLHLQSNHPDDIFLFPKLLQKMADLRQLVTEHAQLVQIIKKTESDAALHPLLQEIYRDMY
Source text: as §1, §2

Compound	EC50 [1] [µM]	EC50 [2] [µM]	EC50 [3] [µM]
C[C@@H]1CN(c2ccc(Cl)c(F)c2)C[C@H](C)N1S(=O)(=O)c1cccc2c1CC(C(=O)O)C2 (stereo partly drawn) [Example 132, 4-|4-(4-Chloro-3-fluorophenyl)-cis-2,6-dimethylpiperazin-1-ylsulfonyl|-2,3-dihydro-1H-indene-2-carboxylic acid]	< 5	> 100	> 100
CC1(C)CN(S(=O)(=O)c2ccc3c(c2)C(C(=O)O)CC3)CCN1c1ccc(C(F)(F)F)cn1 (stereo not drawn) [Example 73, 6-[3,3-dimethyl-4-(5-trifluoromethyl-pyridin-2-yl)-piperazine-1-sulfonyl]-indan-1-carboxylic acid]	< 5	< 5	5 to 100
O=C(O)C1Cc2ccc(S(=O)(=O)N3CCN(c4ccc(C(F)(F)F)cc4)CC3)cc2C1 (stereo not drawn) [Example 5, 5-[4-(4-trifluoromethyl-phenyl)-piperazine-1-sulfonyl]-indan-2-carboxylic acid]	< 5	5 to 100	5 to 100
O=C(O)C1Cc2cccc(S(=O)(=O)N3CCN(c4ccc(OC(F)(F)F)cc4)CC3)c2C1 (stereo not drawn) [Example 102, 4-[4-(-trifluoromethoxy-phenyl)-piperazine-1-sulfonyl]-indan-2-carboxylic acid]	< 5	< 5	< 5
C[C@@H]1CN(c2ccc(Cl)c(Br)c2)C[C@H](C)N1S(=O)(=O)c1cccc2c1CC(C(=O)O)C2 (stereo partly drawn) [Example 120, 4-(4-(3-bromo-4-chlorophenyl)-cis-2,6-dimethylpiperazin-1-ylsulfonyl)-2,3-dihydro-1H-indene-2-carboxylic acid]	< 5	> 100	> 100
C[C@@H]1CN(c2ccc(C(F)(F)F)cc2)C[C@H](C)N1S(=O)(=O)c1ccc2c(c1)C(C(=O)O)CC2 (stereo partly drawn) [Example 104, 6-[cis-2,6-dimethyl-4-(4-trifluoromethyl-phenyl)-piperazine-1-sulfonyl]-indan-1-carboxylic acid]	< 5	5 to 100	< 5
C[C@@H]1CN(c2ccc(OC(F)(F)F)cc2)C[C@H](C)N1S(=O)(=O)c1cccc2c1CC(C(=O)O)C2 (single isomer, unassigned) [Example 80]	< 5	> 100	> 100
O=C(O)Cn1ccc2cc(S(=O)(=O)N3CCN(c4ccc(C(F)(F)F)cc4)CC3)ccc21 [Example 31, {5-[4-(4-Trifluoromethyl-phenyl)-piperazine-1-sulfonyl]-indol-1-yl}-acetic acid]	5 to 100	> 100	> 100
O=C(O)C1Cc2ccc(S(=O)(=O)N3CCN(c4ccc(Cl)c(Cl)c4)CC3)cc2C1 (stereo not drawn) [Example 7, 5-[4-(3,4-dichlorophenyl)-piperazine-1-sulfonyl]-indan-2-carboxylic acid]	< 5	5 to 100	5 to 100
O=C(O)C1Cc2cccc(S(=O)(=O)N3CCN(c4ccc(Cl)cc4)CC3)c2C1 (stereo not drawn) [Example 92, 4-[4-(4-chloro-phenyl)-piperazine-1-sulfonyl]-indan-2-carboxylic acid]	< 5	5 to 100	5 to 100
O=C(O)C1CCc2ccc(S(=O)(=O)N3CCN(c4ccc(C(F)(F)F)cc4F)CC3)cc21 (stereo not drawn) [Example 45, 6-[4-(2-fluoro-4-trifluoromethyl-phenyl)-piperazine-1-sulfonyl]-indan-1-carboxylic acid]	< 5	< 5	< 5
O=C(O)Cc1csc2ccc(S(=O)(=O)N3CCN(c4ccc(C(F)(F)F)cc4F)CC3)cc12 [Example 47, {5-[4-(2-fluoro-4-trifluoromethyl-phenyl)-piperazine-1-sulfonyl]-benzo[b]thiophen-3-yl}-acetic acid]	< 5	< 5	< 5
C[C@@H]1CN(c2ccc(Cl)cc2)C[C@H](C)N1S(=O)(=O)c1cccc2c1CC(C(=O)O)C2 (single isomer, unassigned) [Example 128, 4-(4-(4-chlorophenyl)-cis-2,6-dimethylpiperazin-1-ylsulfonyl)-2,3-dihydro-1H-indene-2-carboxylic acid]	5 to 100	> 100	> 100
CC1CN(S(=O)(=O)c2ccc3scc(CC(=O)O)c3c2)C(C)CN1c1ccc(C(F)(F)F)cn1 (stereo not drawn) [Example 44, {5-[2,5-dimethyl-4-(5-trifluoromethyl-pyridin-2-yl)-piperazine-1-sulfonyl]-benzo[b]thiophen-3-yl}-acetic acid]	< 5	5 to 100	> 100
C[C@@H]1CN(c2ccc(C(F)(F)F)c(Cl)c2)C[C@H](C)N1S(=O)(=O)c1cccc2c1CC(C(=O)O)C2 (single isomer, unassigned) [Example 139, 4-(4-(3-chloro-4-(trifluoromethyl)phenyl)-cis-2,6-dimethylpiperazin-1-ylsulfonyl)-2,3-dihydro-1H-indene-2-carboxylic acid]	5 to 100	> 100	> 100
CCC1CN(S(=O)(=O)c2ccc3c(c2)C(C(=O)O)CC3)CCN1c1ccc(C(F)(F)F)cn1 (stereo not drawn) [Example 64, 6-[3-Ethyl-4-(5-trifluoromethyl-pyrdin-2-yl)-piperazine-1-sulfonyl]-indan-1-carboxylic acid]	< 5	< 5	< 5
O=C(O)C1Cc2ccc(S(=O)(=O)N3CCN(c4cccc(C(F)(F)F)c4)CC3)cc2C1 (stereo not drawn) [Example 15, 5-[4-(3-trifluoromethyl-phenyl)-piperazine-1-sulfonyl]-indan-2-carboxylic acid]	5 to 100	5 to 100	5 to 100
O=C(O)CC1Cc2ccc(S(=O)(=O)N3CCN(c4ccc(Cl)c(Cl)c4)CC3)cc2C1 (stereo not drawn) [Example 3, {5-[4-(3,4-dichlorophenyl)-piperazine-1-sulfonyl]-indan-2-yl}-acetic acid]	5 to 100	5 to 100	5 to 100
CC1(C)CN(c2ccc(C(F)(F)F)cn2)CCN1S(=O)(=O)c1ccc2c(c1)C(C(=O)O)CC2 (stereo not drawn) [Example 38, 6-[2,2-Dimethyl-4-(5-trifluoromethyl-pyridin-2-yl)-piperazine-1-sulfonyl]-indan-1-carboxylic acid]	< 5	< 5	< 5
C[C@@H]1CN(c2ccc(C(F)(F)F)cn2)C[C@H](C)N1S(=O)(=O)c1ccc2scc(CC(=O)O)c2c1 [Example 43, {5-[2,6-dimethyl-4-(5-trifluoromethyl-pyridin-2-yl)-piperazine 1-sulfonyl]-benzo[b]thiophen-3-yl}-acetic acid]	< 5	5 to 100	> 100
